Results as given in BindingDB's records for doi:10.1021/bi3009278 (University of Wisconsin, 2012).

Target: Lysine-specific demethylase 5A (Homo sapiens, UniProt P29375)
Assay: Fluorescence Polarization Binding Assay

Lysine-specific demethylase 5A, sequence (P29375 whole entry): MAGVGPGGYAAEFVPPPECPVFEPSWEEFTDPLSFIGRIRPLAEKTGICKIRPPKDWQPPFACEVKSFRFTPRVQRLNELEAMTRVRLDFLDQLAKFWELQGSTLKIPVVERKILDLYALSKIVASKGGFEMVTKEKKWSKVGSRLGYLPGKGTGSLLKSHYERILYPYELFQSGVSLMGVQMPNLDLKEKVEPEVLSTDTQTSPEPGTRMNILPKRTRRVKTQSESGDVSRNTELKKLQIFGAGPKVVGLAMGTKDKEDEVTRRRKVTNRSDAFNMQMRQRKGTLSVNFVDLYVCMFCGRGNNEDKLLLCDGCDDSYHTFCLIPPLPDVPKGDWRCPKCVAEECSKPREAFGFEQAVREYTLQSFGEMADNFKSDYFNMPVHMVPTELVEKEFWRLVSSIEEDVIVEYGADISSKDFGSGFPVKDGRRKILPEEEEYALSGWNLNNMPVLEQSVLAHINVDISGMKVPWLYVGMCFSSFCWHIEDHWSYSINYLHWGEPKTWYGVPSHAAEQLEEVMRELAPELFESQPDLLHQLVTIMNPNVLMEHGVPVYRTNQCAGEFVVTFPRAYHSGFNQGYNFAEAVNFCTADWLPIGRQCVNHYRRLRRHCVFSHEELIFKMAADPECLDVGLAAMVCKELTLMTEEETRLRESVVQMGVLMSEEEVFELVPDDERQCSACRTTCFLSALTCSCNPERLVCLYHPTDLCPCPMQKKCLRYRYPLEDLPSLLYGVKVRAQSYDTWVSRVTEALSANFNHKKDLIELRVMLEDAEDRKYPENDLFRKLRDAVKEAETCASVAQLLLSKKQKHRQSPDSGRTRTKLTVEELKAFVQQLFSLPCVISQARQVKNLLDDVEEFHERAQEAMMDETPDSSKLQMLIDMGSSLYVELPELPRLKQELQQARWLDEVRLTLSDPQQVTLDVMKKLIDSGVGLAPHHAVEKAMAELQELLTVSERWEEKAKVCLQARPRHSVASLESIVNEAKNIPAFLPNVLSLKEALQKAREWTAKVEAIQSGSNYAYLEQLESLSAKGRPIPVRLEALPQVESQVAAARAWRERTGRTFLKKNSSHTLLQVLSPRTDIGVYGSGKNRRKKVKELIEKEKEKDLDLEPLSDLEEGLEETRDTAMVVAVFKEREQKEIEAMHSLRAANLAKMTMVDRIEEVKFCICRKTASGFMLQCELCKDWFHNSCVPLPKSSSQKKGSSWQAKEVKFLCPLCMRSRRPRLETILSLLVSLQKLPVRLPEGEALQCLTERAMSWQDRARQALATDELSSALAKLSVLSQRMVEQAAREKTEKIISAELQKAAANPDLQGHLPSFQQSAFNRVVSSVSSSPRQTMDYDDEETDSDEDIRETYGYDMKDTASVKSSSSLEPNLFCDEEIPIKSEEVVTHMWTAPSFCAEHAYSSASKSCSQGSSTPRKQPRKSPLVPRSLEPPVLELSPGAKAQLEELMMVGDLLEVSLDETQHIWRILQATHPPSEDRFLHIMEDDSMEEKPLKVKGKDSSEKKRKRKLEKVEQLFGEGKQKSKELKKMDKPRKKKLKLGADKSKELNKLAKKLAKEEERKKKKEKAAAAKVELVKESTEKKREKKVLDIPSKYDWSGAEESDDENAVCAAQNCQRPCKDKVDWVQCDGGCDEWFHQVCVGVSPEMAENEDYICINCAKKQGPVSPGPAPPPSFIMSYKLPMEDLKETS

For `CCCCc1oc2ccccc2c1C(=O)c1cc(I)c(OCCN)c(I)c1` [Di-N-desethylaminodarone], the IC50 was 26 µM.
`CCCCc1oc2ccccc2c1C(=O)c1cc(I)c(OCC[N+](C)(C)C)c(I)c1` [WAG-003] gave an IC50 of 30 µM.
